# Active and inactive are the calls of the source.
# Legend:
# [1] = P. falciparum Dd2 growth inhibitors, dose response, SYBR Green, cherry-picked samples (AID 1159567); assay type: functional, cell-based
# [2] = toxicity to human hepatoma HepG2 cells – cell-based, cherry-picked samples, cytotoxicity control, dose response (AID 1159577); assay type: functional
# Nonstructural protein 1 = Nonstructural protein 1 (Influenza A virus, UniProt Q194T2); assay type: functional, Influenza A virus (A/California/07/2009(H1N1))
# [3] = molecular target: T1, Histone-lysine N-methyltransferase NSD2 (Homo sapiens, UniProt O96028); assay type: biochemical
# T1 sequence (O96028 whole entry): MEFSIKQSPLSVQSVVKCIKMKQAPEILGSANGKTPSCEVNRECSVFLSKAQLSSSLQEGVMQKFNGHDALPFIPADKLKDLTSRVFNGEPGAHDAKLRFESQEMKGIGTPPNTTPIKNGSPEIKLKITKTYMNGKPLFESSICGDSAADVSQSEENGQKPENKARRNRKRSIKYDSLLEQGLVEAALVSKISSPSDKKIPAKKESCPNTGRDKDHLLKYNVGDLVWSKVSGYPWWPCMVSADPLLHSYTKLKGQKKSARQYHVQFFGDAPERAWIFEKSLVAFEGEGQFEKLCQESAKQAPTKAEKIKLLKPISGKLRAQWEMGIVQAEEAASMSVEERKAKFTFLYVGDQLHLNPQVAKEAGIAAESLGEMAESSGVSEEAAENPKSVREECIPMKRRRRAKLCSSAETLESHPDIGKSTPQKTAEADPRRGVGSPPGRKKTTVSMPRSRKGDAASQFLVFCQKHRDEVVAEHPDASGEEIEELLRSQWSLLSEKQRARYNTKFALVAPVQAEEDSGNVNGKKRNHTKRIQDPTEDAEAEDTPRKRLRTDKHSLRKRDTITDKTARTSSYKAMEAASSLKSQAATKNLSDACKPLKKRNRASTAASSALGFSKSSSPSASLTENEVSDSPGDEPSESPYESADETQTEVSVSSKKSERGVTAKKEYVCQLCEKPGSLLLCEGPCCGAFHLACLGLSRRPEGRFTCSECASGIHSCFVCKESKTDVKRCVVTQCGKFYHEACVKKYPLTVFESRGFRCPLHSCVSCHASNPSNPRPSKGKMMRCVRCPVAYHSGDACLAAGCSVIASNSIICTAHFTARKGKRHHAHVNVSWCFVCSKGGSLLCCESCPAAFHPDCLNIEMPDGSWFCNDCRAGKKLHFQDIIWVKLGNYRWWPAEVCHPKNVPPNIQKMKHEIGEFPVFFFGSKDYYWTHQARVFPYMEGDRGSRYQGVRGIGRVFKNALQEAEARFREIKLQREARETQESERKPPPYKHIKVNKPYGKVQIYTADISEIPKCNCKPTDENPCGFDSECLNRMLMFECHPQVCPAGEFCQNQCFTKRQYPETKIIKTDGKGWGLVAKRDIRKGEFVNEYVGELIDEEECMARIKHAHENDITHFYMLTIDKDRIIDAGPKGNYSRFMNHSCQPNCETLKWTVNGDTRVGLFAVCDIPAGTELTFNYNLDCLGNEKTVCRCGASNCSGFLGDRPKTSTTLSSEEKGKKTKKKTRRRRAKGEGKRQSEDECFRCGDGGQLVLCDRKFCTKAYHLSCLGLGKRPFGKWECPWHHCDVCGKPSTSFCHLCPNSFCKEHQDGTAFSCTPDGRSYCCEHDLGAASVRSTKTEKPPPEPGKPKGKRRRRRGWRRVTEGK
# [4] = molecular target: Mitogen-activated protein kinase 10 (Homo sapiens, UniProt P53779); assay: Dose response biochemical screening assay for inhibitors of c-Jun N-Terminal Kinase 3 (JNK3). [Related pubchem assays: 746 ]
# [5] = IGROV1 cell killing – plate reader, dry powder samples, PAX8 inhibitor project, dose response (AID 743043); assay type: functional, cell-based; conditions: IGROV-1
# Paired box protein Pax-8 = Paired box protein Pax-8 (Homo sapiens, UniProt Q06710); assay: PAX8 transcriptional activity inhibition in RMG-I – RMG-I cells, luciferase, cherry-pick, dose response (AID 687027); assay type: functional, cell-based;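 note: luciferase reporter driven by Pax8 target thyroperoxidase promoter measured by SteadyGlo luminescence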
# [6] = OVCAR-3 cell viability loss – plate reader, dry powder samples, PAX8 inhibitor project, dose response (AID 743044); assay type: functional, cell-based
# [7] = OVCAR8 cell viability loss – plate reader, dry powder samples, PAX8 project, dose response (AID 743197); assay type: functional, cell-based; conditions: OVCAR-8
# [8] = viability loss in THP-1 monocytes – THP-1 cells, cytotoxicity control for Vif-APOBEC3G degradation inhibitor project, dose response (AID 1117359); assay type: functional; conditions: THP-1
# Ion channel NompC = Ion channel NompC (Danio rerio, UniProt Q7T1G6); assay: Fluorescence counterscreen assay for TRPML3 agonists: dose response cell-based high-throughput screening assay to identify agonists of the transient receptor potential channel N1 (TRPN1). [Related pubchem assays: 1526, 1424, 1448 ]; assay type: functional
# Mucolipin-3 = molecular target: T2, Mucolipin-3 (Homo sapiens, UniProt Q8TDD5); assay: Dose response cell-based high-throughput screening assay for agonists of the transient receptor potential channel ML3 (TRPML3). [Related pubchem assays: 1526, 1424, 1448 ]; assay type: functional
# T2 sequence (Q8TDD5 whole entry): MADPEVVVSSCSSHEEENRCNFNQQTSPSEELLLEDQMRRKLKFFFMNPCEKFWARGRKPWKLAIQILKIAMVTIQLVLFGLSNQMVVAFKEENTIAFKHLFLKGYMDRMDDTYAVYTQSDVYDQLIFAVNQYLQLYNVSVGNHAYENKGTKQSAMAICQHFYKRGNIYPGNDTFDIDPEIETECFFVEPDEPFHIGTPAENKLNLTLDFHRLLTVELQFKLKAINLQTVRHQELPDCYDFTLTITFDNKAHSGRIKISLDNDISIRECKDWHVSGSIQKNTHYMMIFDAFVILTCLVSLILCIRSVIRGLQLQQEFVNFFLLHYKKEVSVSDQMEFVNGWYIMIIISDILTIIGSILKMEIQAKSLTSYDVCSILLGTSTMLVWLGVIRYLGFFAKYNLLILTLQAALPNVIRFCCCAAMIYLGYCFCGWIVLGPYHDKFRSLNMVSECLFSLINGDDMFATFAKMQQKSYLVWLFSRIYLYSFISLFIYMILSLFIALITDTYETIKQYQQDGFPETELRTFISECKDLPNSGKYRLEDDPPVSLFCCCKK
# [9] = molecular target: T3, Glutathione-S-transferase (Schistosoma japonicum, UniProt Q26513); assay: GST-antibody interaction or FRET quenching – biochemical, TR-FRET, artefact control for Vif-APOBEC3G degradation inhibitor project, dose response (AID 1117362); assay type: functional
# T3 sequence (Q26513 whole entry): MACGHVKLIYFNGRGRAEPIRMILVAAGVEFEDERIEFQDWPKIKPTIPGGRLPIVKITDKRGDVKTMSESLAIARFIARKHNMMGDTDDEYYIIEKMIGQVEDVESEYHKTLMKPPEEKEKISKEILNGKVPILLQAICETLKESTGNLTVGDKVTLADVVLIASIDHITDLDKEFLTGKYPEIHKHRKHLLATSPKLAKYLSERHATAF
# Protein RecA = molecular target: T4, Protein RecA (Mycobacterium tuberculosis, UniProt P9WHJ3); assay: Fluorescence Cell-Free Homogeneous Dose Retest to Identify Inhibitors of RecA-Intein Splicing Activity. [Related pubchem assays (depositor defined):AID2097, AID2223, AID489010, AID492950]; assay type: functional
# T4 sequence (P9WHJ3 whole entry): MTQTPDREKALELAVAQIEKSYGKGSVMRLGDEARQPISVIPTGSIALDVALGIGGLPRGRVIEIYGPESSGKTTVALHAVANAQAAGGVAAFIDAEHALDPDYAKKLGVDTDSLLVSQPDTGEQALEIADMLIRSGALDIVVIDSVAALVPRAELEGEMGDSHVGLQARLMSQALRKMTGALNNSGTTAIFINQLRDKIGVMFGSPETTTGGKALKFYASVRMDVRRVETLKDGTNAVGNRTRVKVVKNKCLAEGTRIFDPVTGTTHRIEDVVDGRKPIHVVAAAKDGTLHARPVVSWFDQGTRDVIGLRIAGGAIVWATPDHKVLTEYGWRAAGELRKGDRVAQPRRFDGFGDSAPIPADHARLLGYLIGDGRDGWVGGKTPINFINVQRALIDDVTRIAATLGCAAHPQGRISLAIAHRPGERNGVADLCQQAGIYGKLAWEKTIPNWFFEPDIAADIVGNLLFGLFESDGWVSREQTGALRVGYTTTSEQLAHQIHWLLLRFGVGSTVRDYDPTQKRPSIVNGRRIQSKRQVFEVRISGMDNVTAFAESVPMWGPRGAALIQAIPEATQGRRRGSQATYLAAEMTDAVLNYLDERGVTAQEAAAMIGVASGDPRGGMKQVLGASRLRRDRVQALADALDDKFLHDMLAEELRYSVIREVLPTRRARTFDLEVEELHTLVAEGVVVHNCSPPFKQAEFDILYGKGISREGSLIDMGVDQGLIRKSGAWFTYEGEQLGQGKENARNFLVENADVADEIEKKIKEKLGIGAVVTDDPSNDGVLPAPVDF
# [10] = viability of PTEN-deleted HCT116 cells – cell-based, HCT116 PTEN knockout, dose response (AID 1047); assay type: functional;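 note: HCT116 colon tumor cells with PTEN knocked out; cells exposed to compound for 60 hours before readout; potency for loss of cell viability measured by luminescence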
# [11] = molecular target: T5, Replicative DNA helicase DnaB (Mycobacterium tuberculosis, UniProt P9WMR3); assay: DnaB intein splicing inhibitors, dose response, biochemical, cell-free fluorescence (AID 449749); assay type: functional
# T5 sequence (P9WMR3 whole entry): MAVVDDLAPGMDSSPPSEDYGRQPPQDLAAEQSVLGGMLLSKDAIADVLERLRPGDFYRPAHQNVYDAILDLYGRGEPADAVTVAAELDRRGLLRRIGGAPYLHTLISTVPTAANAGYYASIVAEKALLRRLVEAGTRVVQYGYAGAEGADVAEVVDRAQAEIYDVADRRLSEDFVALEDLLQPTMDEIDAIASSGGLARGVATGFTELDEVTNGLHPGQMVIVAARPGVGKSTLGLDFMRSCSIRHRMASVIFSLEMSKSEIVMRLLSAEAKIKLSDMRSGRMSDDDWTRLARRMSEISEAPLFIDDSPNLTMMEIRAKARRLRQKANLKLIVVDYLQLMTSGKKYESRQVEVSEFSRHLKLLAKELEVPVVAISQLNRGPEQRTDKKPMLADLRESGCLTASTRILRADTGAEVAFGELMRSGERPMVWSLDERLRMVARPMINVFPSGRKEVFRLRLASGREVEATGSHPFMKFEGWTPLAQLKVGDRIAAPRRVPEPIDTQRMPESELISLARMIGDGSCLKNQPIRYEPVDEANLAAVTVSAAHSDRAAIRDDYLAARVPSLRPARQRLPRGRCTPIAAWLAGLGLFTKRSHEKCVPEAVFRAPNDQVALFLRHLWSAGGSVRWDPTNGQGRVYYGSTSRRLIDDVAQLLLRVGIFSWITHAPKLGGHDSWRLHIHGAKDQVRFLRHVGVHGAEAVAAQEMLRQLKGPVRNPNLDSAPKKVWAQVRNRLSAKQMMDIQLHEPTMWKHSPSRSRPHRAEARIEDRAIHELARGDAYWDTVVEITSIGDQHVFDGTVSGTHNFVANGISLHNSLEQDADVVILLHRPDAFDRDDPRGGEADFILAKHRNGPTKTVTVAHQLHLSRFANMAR
# [12] = viability of HCT116 lacking mutant beta-catenin – cell-based, human colon tumor, dose response (AID 1045); assay type: functional;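 note: HCT116 colon tumor cells with beta catenin knocked out; cells exposed to compound for 60 hours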
# [13] = Dd2 malaria parasite growth inhibition potency – SYBR Green, dry powder samples, dose response (AID 1159566); assay type: functional, cell-based;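 note: potency for growth inhibition with lower SYBR green DNA signal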
# [14] = growth inhibition of PfATP4-mutant resistant parasites – NITD609-resistant line, SYBR Green, dry powder, dose response (AID 1159571); assay type: functional, cell-based;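 note: parasites synchronized at ring stage by sorbitol before testing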
# [15] = growth inhibition of yeast DHODH-expressing 3D7 parasites – SYBR Green, dry powder samples, dose response (AID 1159570); assay type: functional, cell-based;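 note: parasite growth measured after 72 hours of compound exposure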
# Sequence of Ion channel NompC (Q7T1G6 whole entry): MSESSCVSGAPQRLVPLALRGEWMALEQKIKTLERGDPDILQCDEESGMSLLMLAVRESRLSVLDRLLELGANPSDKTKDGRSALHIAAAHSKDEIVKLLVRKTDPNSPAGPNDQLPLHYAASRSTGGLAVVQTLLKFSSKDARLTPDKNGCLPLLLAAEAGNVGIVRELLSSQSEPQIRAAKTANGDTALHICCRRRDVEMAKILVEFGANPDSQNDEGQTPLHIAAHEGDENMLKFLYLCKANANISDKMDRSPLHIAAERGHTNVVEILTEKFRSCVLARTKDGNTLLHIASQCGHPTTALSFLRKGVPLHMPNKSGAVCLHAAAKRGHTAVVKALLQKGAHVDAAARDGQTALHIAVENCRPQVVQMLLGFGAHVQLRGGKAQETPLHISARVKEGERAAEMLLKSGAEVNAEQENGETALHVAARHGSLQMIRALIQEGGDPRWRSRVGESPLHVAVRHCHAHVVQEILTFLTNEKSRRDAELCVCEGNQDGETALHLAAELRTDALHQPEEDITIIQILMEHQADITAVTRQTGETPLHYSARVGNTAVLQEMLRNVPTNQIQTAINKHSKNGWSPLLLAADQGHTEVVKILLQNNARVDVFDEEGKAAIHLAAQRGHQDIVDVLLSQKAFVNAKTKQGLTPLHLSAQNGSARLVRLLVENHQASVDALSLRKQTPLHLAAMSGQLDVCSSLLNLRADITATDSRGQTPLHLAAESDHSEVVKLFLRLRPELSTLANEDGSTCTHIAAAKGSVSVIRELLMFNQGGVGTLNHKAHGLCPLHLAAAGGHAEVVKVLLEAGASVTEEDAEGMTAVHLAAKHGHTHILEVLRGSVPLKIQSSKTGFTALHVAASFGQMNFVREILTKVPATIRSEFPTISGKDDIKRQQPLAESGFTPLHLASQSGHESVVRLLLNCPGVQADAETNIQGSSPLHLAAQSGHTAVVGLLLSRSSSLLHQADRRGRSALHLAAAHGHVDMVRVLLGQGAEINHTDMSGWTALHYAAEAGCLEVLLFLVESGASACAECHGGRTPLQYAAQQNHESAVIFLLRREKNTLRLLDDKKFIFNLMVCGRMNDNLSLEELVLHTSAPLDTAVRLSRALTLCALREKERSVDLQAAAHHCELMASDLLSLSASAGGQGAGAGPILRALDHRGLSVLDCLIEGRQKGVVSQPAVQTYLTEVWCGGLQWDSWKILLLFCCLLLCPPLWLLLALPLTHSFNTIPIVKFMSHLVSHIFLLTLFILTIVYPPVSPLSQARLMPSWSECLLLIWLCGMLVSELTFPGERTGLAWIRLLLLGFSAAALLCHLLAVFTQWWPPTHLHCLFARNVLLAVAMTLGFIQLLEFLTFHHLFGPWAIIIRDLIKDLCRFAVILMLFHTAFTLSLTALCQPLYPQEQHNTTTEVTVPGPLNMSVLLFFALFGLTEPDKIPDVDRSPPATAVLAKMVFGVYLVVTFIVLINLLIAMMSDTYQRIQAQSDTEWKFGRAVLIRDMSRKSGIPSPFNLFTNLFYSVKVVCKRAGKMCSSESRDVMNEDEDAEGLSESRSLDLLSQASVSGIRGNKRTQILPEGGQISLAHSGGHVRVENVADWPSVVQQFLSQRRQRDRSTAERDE
# Sequence of Mitogen-activated protein kinase 10 (P53779 whole entry): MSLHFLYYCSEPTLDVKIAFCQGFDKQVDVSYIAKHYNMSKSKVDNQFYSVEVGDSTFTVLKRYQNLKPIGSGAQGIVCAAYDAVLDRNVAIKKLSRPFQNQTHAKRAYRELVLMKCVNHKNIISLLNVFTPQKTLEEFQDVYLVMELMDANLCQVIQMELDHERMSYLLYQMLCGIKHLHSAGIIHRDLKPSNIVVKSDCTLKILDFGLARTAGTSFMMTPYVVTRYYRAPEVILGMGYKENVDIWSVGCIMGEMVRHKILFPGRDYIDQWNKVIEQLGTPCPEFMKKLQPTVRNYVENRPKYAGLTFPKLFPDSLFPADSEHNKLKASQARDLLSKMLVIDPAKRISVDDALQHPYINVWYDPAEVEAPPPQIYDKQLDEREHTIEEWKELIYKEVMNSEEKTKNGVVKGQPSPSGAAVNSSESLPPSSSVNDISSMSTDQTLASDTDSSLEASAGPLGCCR
# Sequence of Paired box protein Pax-8 (Q06710 whole entry): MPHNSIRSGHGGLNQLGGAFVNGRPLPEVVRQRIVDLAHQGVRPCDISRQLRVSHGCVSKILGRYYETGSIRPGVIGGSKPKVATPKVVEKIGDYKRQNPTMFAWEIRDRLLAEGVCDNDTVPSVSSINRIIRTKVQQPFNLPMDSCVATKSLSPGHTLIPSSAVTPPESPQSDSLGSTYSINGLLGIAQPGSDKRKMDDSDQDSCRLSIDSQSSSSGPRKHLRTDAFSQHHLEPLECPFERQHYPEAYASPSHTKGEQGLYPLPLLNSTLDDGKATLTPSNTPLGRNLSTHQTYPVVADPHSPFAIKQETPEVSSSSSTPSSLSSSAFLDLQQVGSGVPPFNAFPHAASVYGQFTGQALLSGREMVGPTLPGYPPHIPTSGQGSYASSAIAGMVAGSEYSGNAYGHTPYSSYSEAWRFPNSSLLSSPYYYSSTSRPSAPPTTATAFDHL
# Sequence of Nonstructural protein 1 (Q194T2 whole entry): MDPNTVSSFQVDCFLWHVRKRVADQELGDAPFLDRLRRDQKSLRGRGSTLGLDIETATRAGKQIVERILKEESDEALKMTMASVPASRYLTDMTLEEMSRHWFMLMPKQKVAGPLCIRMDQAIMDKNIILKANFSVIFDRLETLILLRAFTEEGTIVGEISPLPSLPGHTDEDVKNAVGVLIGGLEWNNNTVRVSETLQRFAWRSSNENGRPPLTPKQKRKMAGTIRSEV
smiles,measurement,setting,value
COc1cccc(CN2C[C@@H]3N[C@H](C2)[C@@H]3c2ccc(-c3cccc(C#N)c3)cc2)c1,AC50,[1],3.66 µM (active)
same,AC50,[2],9.19 µM (active)
C[C@@H]1CN([C@H](C)CO)C(=O)c2cc(C#CCc3ccccc3)cnc2O[C@H]1CN(C)CC1CCCC1,AC50,[1],1.91 µM (active)
same,AC50,[2],13.5 µM (active)
Cc1[nH]c(=O)[nH]c1C(=O)CCCCC(=O)OCC(=O)Nc1ccccn1,IC50,Nonstructural protein 1,1.98 µM (active)
same,AC50,[3],1.26 µM (active)
same,IC50,[4],> 93.1 µM (not active)
C[C@H]1CCCCO[C@@H](CN(C)Cc2ccc(C(F)(F)F)cc2)[C@@H](C)CN([C@@H](C)CO)C(=O)c2cc(NC(=O)Nc3ccc4c(c3)OCO4)ccc2O1,AC50,[5],49.6 µM (active)
same,AC50,Paired box protein Pax-8,7.11 µM (active)
same,AC50,[6],21.1 µM (active)
same,AC50,[7],51.5 µM (active)
CN(C)N1C(N)=C(C#N)C(c2cccnc2)C2=C1CCCC2=O (stereo unspecified),CC50,[8],> 40 µM (active)
COc1ccc(S(=O)(=O)NC2CCCC2)c(Cl)c1Cl,EC50,Ion channel NompC,> 29.9 µM (not active)
same,EC50,Mucolipin-3,3.55 µM (active)
O=C(Nc1nc(-c2ccc3ccccc3c2)cs1)C1CCN(S(=O)(=O)c2cccs2)CC1,EC50,Ion channel NompC,> 29.9 µM (not active)
same,EC50,Mucolipin-3,14.2 µM (not active)
CC1CCc2nc(N)c(C#N)c(-c3ccncc3)c2C1 (stereo unspecified),IC50,[4],> 93.1 µM (not active)
O=S(=O)(c1ccc(Cl)cc1Br)N1CCCCC1,EC50,Ion channel NompC,> 29.9 µM (not active)
same,EC50,Mucolipin-3,> 29.9 µM (not active)
CC[n+]1c(/C=C2\C=C(C)CC(C)(C)C2)sc2ccccc21,IC50,[9],> 100 µM (active)
same,EC50,Protein RecA,27.3 µM (active)
same,CC50,[8],4.22 µM (active)
same,EC50,[10],11.7 µM (active)
same,AC50,[11],> 380 µM (inactive)
same,EC50,[12],9.81 µM (active)
O=C(C1CC1)N1CC(=O)N2[C@H](CO)[C@H](c3ccc(C#CCc4ccccc4)cc3)[C@H]2C1,AC50,[1],9.66 µM (active)
same,AC50,[2],> 39 µM (inactive)
CN(C)C(=O)c1cccc(-c2cccc(-c3nc(C(=O)NC4CCCCC4)cc4c3[C@H](CCO)N([S@@+]([O-])C(C)(C)C)C4)c2)c1,AC50,[13],0.736 µM (active)
same,AC50,[1],2.05 µM (active)
same,AC50,[14],0.933 µM (active)
same,AC50,[15],1.32 µM (active)

# Reference: ChEMBL document CHEMBL1201862, “PubChem BioAssay data set” (2004)
